The test system of one data set is Heart. As to the kind of experiment: Biodistribution in Wistar rat heart at 1.7 MBq, iv administered as single dose measured after 30 mins post-injection by gamma counting. The following applies: in vivo, 0.5 h. Format: ADME, organism-based.
The nature of data set [1]: Biodistribution in Wistar rat brown adipose tissue assessed as standard uptake value at 1.7 MBq, iv administered as single dose measured after 30 mins post-injection by gamma counting. Format: ADME, organism-based. The following applies: in vivo, 0.5 h.
The test system of data set [2] is Lung. Kind of data set: Biodistribution in Wistar rat lung assessed as standard uptake value at 1.7 MBq, iv administered as single dose measured after 10 mins post-injection by gamma counting. Format: ADME, organism-based. To be noted: in vivo.
Data set [3] is described as follows: Biodistribution in Wistar rat urine at 1.7 MBq, iv administered as single dose measured after 5 mins post-injection by gamma counting. Format: ADME, organism-based. The following applies: in vivo.
The nature of data set [4]: Biodistribution in Wistar rat stomach at 1.7 MBq, iv administered as single dose measured after 60 mins post-injection by gamma counting. Format: ADME, organism-based. To be noted: in vivo, 1 h.
The test system of data set [5] is Harderian gland. Kind of data set: Biodistribution in Wistar rat harderian gland assessed as standard uptake value at 1.7 MBq, iv administered as single dose measured after 30 mins post-injection by gamma counting. The format is ADME, organism-based. To be noted: in vivo, 0.5 h.
A further data set relates to Pancreas. As to the kind of experiment: Biodistribution in Wistar rat pancreas at 1.7 MBq, iv administered as single dose measured after 30 mins post-injection by gamma counting. The format is ADME, organism-based. To be noted: in vivo, 0.5 h.
Data set [6] has as its system Lung. As to the kind of experiment: Biodistribution in Wistar rat lung assessed as standard uptake value at 1.7 MBq, iv administered as single dose measured after 1 min post-injection by gamma counting. Format: ADME, organism-based. The following applies: in vivo.
A short description of data set [7]: Biodistribution in Wistar rat urine at 1.7 MBq, iv administered as single dose measured after 1 min post-injection by gamma counting. Format: ADME, organism-based. To be noted: in vivo.
The nature of data set [8]: Biodistribution in Wistar rat hair/skin assessed as standard uptake value at 1.7 MBq, iv administered as single dose measured after 5 mins post-injection by gamma counting. Format: ADME, organism-based. The following applies: in vivo.
A further data set concerns Liver. Kind of data set: Biodistribution in Wistar rat liver assessed as standard uptake value at 1.7 MBq, iv administered as single dose measured after 10 mins post-injection by gamma counting. The format is ADME, organism-based. The following applies: in vivo.
In another data set the test system is Brain. As to the kind of experiment: Biodistribution in Wistar rat brain at 1.7 MBq, iv administered as single dose measured after 60 mins post-injection by gamma counting. To be noted: in vivo, 1 h. Format: ADME, organism-based.
For the next data set, the system named is Testes. As to the kind of experiment: Biodistribution in Wistar rat testes at 1.7 MBq, iv administered as single dose measured after 1 min post-injection by gamma counting. The format is ADME, organism-based, Testis. To be noted: in vivo.
The subject of data set [9] is Adrenal gland. As to the kind of experiment: Biodistribution in Wistar rat adrenal gland assessed as standard uptake value at 1.7 MBq, iv administered as single dose measured after 30 mins post-injection by gamma counting. The following applies: in vivo, 0.5 h. The format is ADME, organism-based.
In data set [10] the test system is Harderian gland. As to the kind of experiment: Biodistribution in Wistar rat harderian gland assessed as standard uptake value at 1.7 MBq, iv administered as single dose measured after 5 mins post-injection by gamma counting. The format is ADME, organism-based. The following applies: in vivo.
The nature of data set [11]: Biodistribution in Wistar rat stomach at 1.7 MBq, iv administered as single dose measured after 1 min post-injection by gamma counting. Format: ADME, organism-based. To be noted: in vivo.
For data set [12], the system named is Intestine. Kind of data set: Biodistribution in Wistar rat intestine at 1.7 MBq, iv administered as single dose measured after 1 min post-injection by gamma counting. The format is ADME, organism-based. To be noted: in vivo.
A further data set relates to Kidney. As to the kind of experiment: Biodistribution in Wistar rat kidney assessed as standard uptake value at 1.7 MBq, iv administered as single dose measured after 5 mins post-injection by gamma counting. The format is ADME, organism-based. The following applies: in vivo.
Data set [13] concerns Intestine. As to the kind of experiment: Biodistribution in Wistar rat intestine at 1.7 MBq, iv administered as single dose measured after 5 mins post-injection by gamma counting. The format is ADME, organism-based. The following applies: in vivo.
The test system of data set [14] is Adrenal gland. As to the kind of experiment: Biodistribution in Wistar rat adrenal gland assessed as standard uptake value at 1.7 MBq, iv administered as single dose measured after 60 mins post-injection by gamma counting. The following applies: in vivo, 1 h. Format: ADME, organism-based.

Here are results for one molecule from ChEMBL document CHEMBL1152667, “Synthesis and radiopharmacological investigation of 3-[4'-[(18)F]fluorobenzylidene]indolin-2-one as possible tyrosine kinase inhibitor” (Bioorg Med Chem, 2009).

Structures are written as SMILES.

With `O=C1Nc2ccccc2/C1=C/c1ccc([18F])cc1`, the Drug uptake with Heart is 0.18 %ID; in data set [3] it was 2.39 %ID; in [4] it was 0.6 %ID; with Pancreas it was 0.11 %ID; in data set [7] it was 3.97 %ID; in the data set with Brain, 0.2 %ID. The Drug uptake with Testes amounted to 0 %ID; in data set [11], 0.71 %ID; in the data set on Intestine [12], 8.84 %ID; in the data set on Intestine [13], 13.96 %ID. The SUV in data set [1] is listed as 0.98%; in the data set on Lung [2] it was 0.85%; with Harderian gland [5], 1.07%; in the data set with Lung [6] it was 4.26%; in data set [8] it was 0.92%; in the data set with Liver it was 3.03%. Moreover, the SUV is given as 1.39% with Adrenal gland [9], 2.43% in the data set on Harderian gland [10], 2.64% with Kidney and 1.11% in the data set on Adrenal gland [14].
